# From PMC11839852, “Preclinical comparison of (radio)lanthanides using mass spectrometry and nuclear imaging techniques: biodistribution of lanthanide-based tumor-targeting agents and lanthanides in ionic form” (European Journal of Nuclear Medicine and Molecular Imaging, 2024)
# Marks after values point to notes of the source that are not given here.
# Experiments:
# [1] = test system: AR42J tumor cells; assay: In vitro cell uptake of lanthanide chloride salts; type: cell-based, rat
# Experimental: (§1) A mixture of equal molar amounts of the lanthanide chloride salts (100 nM stock solutions of ^natLuCl3, ^natTbCl3, ^natGdCl3, and ^natEuCl3, diluted in saline with an adjusted pH value to 3.5‒4.0) was prepared to obtain a final concentration of 10 pmol/mL (2.5 pmol/mL per lanthanide salt) and tested with AR42J, PC-3 PIP and KB tumor cells according to the same protocol as described for the Ln-labeled biomolecules (Supplementary Material). Analogous in vitro cell uptake studies were also performed with lanthanide metal complexes of diethylenetriaminepentaacetic acid (DTPA, Sigma Aldrich Chemie, Steinheim, Germany) to obtain a final concentration of 10 pmol/mL (2.5 pmol/mL per lanthanide complex) (Supplementary Material).
# (§2) Cell uptake studies were performed in triplicate in 3‒6 independent experiments and the results presented as the average ± standard deviation (SD). Data were normalized to the values measured for the ^175Lu-labeled tumor targeting agent or [^175Lu]LuCl3, which were set as 100% and zero was defined as 0%. Statistical significance of the normalized data was assessed for the comparison of the values obtained for terbium, gadolinium and europium analogues with those obtained for the lutetium counterparts by applying one-way ANOVA with the Dunnett’s post-test using GraphPad Prism software (version 8). A p-value of < 0.05 was considered statistically significant.
# (§3) Methods: The same experimental setting as described for Ln-labeled biomolecules was applied to perform uptake and internalization studies with the lanthanide salts (LnCl3; Ln = ^natLu, ^natTb, ^natGd and ^natEu). The applied solution was a mixture of the four lanthanide salts yielding a final concentration of 0.4 µM. Of these mixtures, 25 μL were added to the corresponding well with tumor cells. The cells were incubated for 1 h and 4 h, respectively, at 37 °C and 5% CO2. After incubation, the tumor cells were treated as described for the Ln-labeled biomolecules and processed for the measurement with ICP-MS.
# [2] = test system: non-tumor-bearing immunocompetent FVB mice; assay: Biodistribution of lanthanide chloride salts LnCl3 (multiplexed ICP-MS); type: in vivo; conditions: for Tissue uptake: Blood / Tissue uptake: Bone / Tissue uptake: Brain / Tissue uptake: Heart / Tissue uptake: Intestines / Tissue uptake: Kidneys / Tissue uptake: Liver / Tissue uptake: Lung / Tissue uptake: Muscle / Tissue uptake: Pancreas / Tissue uptake: Salivary glands / Tissue uptake: Spleen / Tissue uptake: Stomach: non-tumor-bearing mice
# [3] = test system: KB tumor cells; assay: In vitro cell uptake of lanthanide chloride salts; type: cell-based, human; conditions: 1 h incubation
# Experimental: as §1, §2, §3
# [4] = test system: PC-3 PIP tumor cells; assay: In vitro cell uptake of lanthanide chloride salts; type: cell-based, human
# Experimental: as §1, §2, §3
# [5] = 24 h p.i., estimated ratios (organ <0.5% ID/g)
# [6] = 96 h p.i., estimated ratios (organ <0.5% ID/g)
compound,measurement,setting,value
[Cl-].[Cl-].[Cl-].[Eu+3] [[^153Eu]EuCl3],Lanthanide uptake compared with [175Lu]LuCl3,[1],lower uptake
same,Organ ratios: Blood-to-bone,[2]; 1 h p.i.,0.40 ± 0.05
same,Organ ratios: Blood-to-liver,[2]; 1 h p.i.,0.14 ± 0.02
same,Organ ratios: Liver-to-bone,[2]; 1 h p.i.,3.0 ± 0.4
same,Tissue uptake: Blood,[2]; 1 h p.i.,5.5 ± 0.6 % ID/g
same,Tissue uptake: Bone,[2]; 1 h p.i.,14 ± 2 % ID/g
same,Tissue uptake: Brain,[2]; 1 h p.i.,1.2 ± 0.9 % ID/g
same,Tissue uptake: Heart,[2]; 1 h p.i.,5.3 ± 2.1 % ID/g
same,Tissue uptake: Intestines,[2]; 1 h p.i.,2.6 ± 0.9 % ID/g
same,Tissue uptake: Kidneys,[2]; 1 h p.i.,8.1 ± 2.1 % ID/g
same,Tissue uptake: Liver,[2]; 1 h p.i.,41 ± 5 % ID/g
same,Tissue uptake: Lung,[2]; 1 h p.i.,4.8 ± 1.1 % ID/g
same,Tissue uptake: Muscle,[2]; 1 h p.i.,1.7 ± 1.0 % ID/g
same,Tissue uptake: Pancreas,[2]; 1 h p.i.,2.2 ± 1.0 % ID/g
same,Tissue uptake: Salivary glands,[2]; 1 h p.i.,2.7 ± 1.7 % ID/g
same,Tissue uptake: Spleen,[2]; 1 h p.i.,6.9 ± 1.6 % ID/g
same,Tissue uptake: Stomach,[2]; 1 h p.i.,6.0 ± 2.3 % ID/g
same,Organ ratios: Liver-to-bone,[2]; 24 h p.i.,2.7 ± 0.8
same,Organ ratios: Blood-to-bone,[2]; [5],<0.04^*
same,Organ ratios: Blood-to-liver,[2]; [5],<0.01^*
same,Tissue uptake: Blood,[2]; 24 h p.i.,<0.5 % ID/g
same,Tissue uptake: Bone,[2]; 24 h p.i.,14 ± 3 % ID/g
same,Tissue uptake: Brain,[2]; 24 h p.i.,<0.5 % ID/g
same,Tissue uptake: Heart,[2]; 24 h p.i.,1.0 ± 0.1 % ID/g
same,Tissue uptake: Intestines,[2]; 24 h p.i.,0.58 ± 0.06 % ID/g
same,Tissue uptake: Kidneys,[2]; 24 h p.i.,3.8 ± 0.9 % ID/g
same,Tissue uptake: Lung,[2]; 24 h p.i.,1.1 ± 0.2 % ID/g
same,Tissue uptake: Muscle,[2]; 24 h p.i.,<0.5 % ID/g
same,Tissue uptake: Pancreas,[2]; 24 h p.i.,<0.5 % ID/g
same,Tissue uptake: Salivary glands,[2]; 24 h p.i.,0.53 ± 0.17 % ID/g
same,Tissue uptake: Spleen,[2]; 24 h p.i.,5.6 ± 1.1 % ID/g
same,Tissue uptake: Stomach,[2]; 24 h p.i.,1.9 ± 0.5 % ID/g
same,Tissue uptake: Liver,"[2]; 24 h p.i., listed as europium",37 ± 7 % ID/g
same,Tissue uptake: Liver,"[2]; 24 h p.i., listed as natEu",~ 37 % ID/g
same,Organ ratios: Liver-to-bone,[2]; 96 h p.i.,1.3 ± 0.2
same,Organ ratios: Blood-to-bone,[2]; [6],<0.03^*
same,Organ ratios: Blood-to-liver,[2]; [6],<0.02^*
same,Tissue uptake: Blood,[2]; 96 h p.i.,<0.5 % ID/g
same,Tissue uptake: Bone,[2]; 96 h p.i.,18 ± 3 % ID/g
same,Tissue uptake: Brain,[2]; 96 h p.i.,<0.5 % ID/g
same,Tissue uptake: Heart,[2]; 96 h p.i.,0.83 ± 0.05 % ID/g
same,Tissue uptake: Intestines,[2]; 96 h p.i.,0.53 ± 0.04 % ID/g
same,Tissue uptake: Kidneys,[2]; 96 h p.i.,1.9 ± 0.1 % ID/g
same,Tissue uptake: Liver,[2]; 96 h p.i.,23 ± 1 % ID/g
same,Tissue uptake: Lung,[2]; 96 h p.i.,0.88 ± 0.15 % ID/g
same,Tissue uptake: Muscle,[2]; 96 h p.i.,<0.5 % ID/g
same,Tissue uptake: Pancreas,[2]; 96 h p.i.,<0.5 % ID/g
same,Tissue uptake: Salivary glands,[2]; 96 h p.i.,<0.5 % ID/g
same,Tissue uptake: Spleen,[2]; 96 h p.i.,3.5 ± 0.3 % ID/g
same,Tissue uptake: Stomach,[2]; 96 h p.i.,2.3 ± 0.3 % ID/g
[Cl][Tb]([Cl])[Cl] [[^159Tb]TbCl3],Lanthanide uptake compared with [175Lu]LuCl3,[1],No significant difference
same,Detected amount compared with lutetium,[3],significantly lower
same,Lanthanide uptake compared with [175Lu]LuCl3,[4],No significant difference
same,Organ ratios: Blood-to-bone,[2]; 1 h p.i.,0.38 ± 0.08
same,Organ ratios: Blood-to-liver,[2]; 1 h p.i.,0.19 ± 0.05
same,Organ ratios: Liver-to-bone,[2]; 1 h p.i.,2.0 ± 0.3
same,Tissue uptake: Blood,[2]; 1 h p.i.,5.0 ± 0.9 % ID/g
same,Tissue uptake: Bone,[2]; 1 h p.i.,13 ± 2 % ID/g
same,Tissue uptake: Brain,[2]; 1 h p.i.,1.1 ± 0.8 % ID/g
same,Tissue uptake: Heart,[2]; 1 h p.i.,4.8 ± 2.2 % ID/g
same,Tissue uptake: Intestines,[2]; 1 h p.i.,2.6 ± 1.0 % ID/g
same,Tissue uptake: Kidneys,[2]; 1 h p.i.,8.7 ± 2.5 % ID/g
same,Tissue uptake: Liver,[2]; 1 h p.i.,27 ± 3 % ID/g
same,Tissue uptake: Lung,[2]; 1 h p.i.,4.8 ± 1.2 % ID/g
same,Tissue uptake: Muscle,[2]; 1 h p.i.,1.6 ± 0.9 % ID/g
same,Tissue uptake: Pancreas,[2]; 1 h p.i.,2.2 ± 1.0 % ID/g
same,Tissue uptake: Salivary glands,[2]; 1 h p.i.,2.4 ± 1.4 % ID/g
same,Tissue uptake: Spleen,[2]; 1 h p.i.,6.1 ± 1.4 % ID/g
same,Tissue uptake: Stomach,[2]; 1 h p.i.,6.0 ± 2.3 % ID/g
same,Organ ratios: Liver-to-bone,[2]; 24 h p.i.,1.6 ± 0.5
same,Organ ratios: Blood-to-bone,[2]; [5],<0.04^*
same,Organ ratios: Blood-to-liver,[2]; [5],<0.02^*
same,Tissue uptake: Blood,[2]; 24 h p.i.,<0.5 % ID/g
same,Tissue uptake: Bone,[2]; 24 h p.i.,15 ± 2 % ID/g
same,Tissue uptake: Brain,[2]; 24 h p.i.,<0.5 % ID/g
same,Tissue uptake: Heart,[2]; 24 h p.i.,0.76 ± 0.10 % ID/g
same,Tissue uptake: Intestines,[2]; 24 h p.i.,0.54 ± 0.05 % ID/g
same,Tissue uptake: Kidneys,[2]; 24 h p.i.,3.8 ± 0.8 % ID/g
same,Tissue uptake: Lung,[2]; 24 h p.i.,1.0 ± 0.1 % ID/g
same,Tissue uptake: Muscle,[2]; 24 h p.i.,<0.5 % ID/g
same,Tissue uptake: Pancreas,[2]; 24 h p.i.,<0.5 % ID/g
same,Tissue uptake: Salivary glands,[2]; 24 h p.i.,<0.5 % ID/g
same,Tissue uptake: Spleen,[2]; 24 h p.i.,5.0 ± 1.1 % ID/g
same,Tissue uptake: Stomach,[2]; 24 h p.i.,1.8 ± 0.4 % ID/g
same,Tissue uptake: Liver,"[2]; 24 h p.i., listed as natTb",~ 22 % ID/g
same,Tissue uptake: Liver,"[2]; 24 h p.i., listed as terbium",22 ± 5 % ID/g
same,Organ ratios: Liver-to-bone,[2]; 96 h p.i.,0.59 ± 0.18
same,Organ ratios: Blood-to-bone,[2]; [6],<0.03^*
same,Organ ratios: Blood-to-liver,[2]; [6],<0.05^*
same,Tissue uptake: Blood,[2]; 96 h p.i.,<0.5 % ID/g
same,Tissue uptake: Bone,[2]; 96 h p.i.,19 ± 4 % ID/g
same,Tissue uptake: Brain,[2]; 96 h p.i.,<0.5 % ID/g
same,Tissue uptake: Heart,[2]; 96 h p.i.,0.73 ± 0.05 % ID/g
same,Tissue uptake: Intestines,[2]; 96 h p.i.,0.52 ± 0.01 % ID/g
same,Tissue uptake: Kidneys,[2]; 96 h p.i.,2.0 ± 0.1 % ID/g
same,Tissue uptake: Liver,[2]; 96 h p.i.,11 ± 1 % ID/g
same,Tissue uptake: Lung,[2]; 96 h p.i.,0.91 ± 0.10 % ID/g
same,Tissue uptake: Muscle,[2]; 96 h p.i.,<0.5 % ID/g
same,Tissue uptake: Pancreas,[2]; 96 h p.i.,<0.5 % ID/g
same,Tissue uptake: Salivary glands,[2]; 96 h p.i.,<0.5 % ID/g
same,Tissue uptake: Spleen,[2]; 96 h p.i.,3.1 ± 0.2 % ID/g
same,Tissue uptake: Stomach,[2]; 96 h p.i.,2.2 ± 0.4 % ID/g
